A word on the cell viability: it is a per cent measure of how many cells are alive, often set against a control.

The text below walks through data of patent US20260166175A1, “FABRICATION OF CYCLODEXTRIN PARTICLES AND CRYOGELS AND METHODS OF USING AND MAKING THEREOF” (University of South Florida, priority 2022, published 2026).

One data set deals with Human blood. Kind of data set: Blood clotting assay. As to conditions: 1 mg/mL. The protocol: Hemolysis and blood clotting assays were performed to investigate the blood compatibility of linear α-CD, β-CD, and γ-CD and their particle forms. Human blood was obtained from healthy volunteers and approved by the Clinical Research Ethics Committee of Canakkale Onsekiz Mart University (2011-KAEK-27/2022-2200063689) and placed into tubes containing EDTA. Before the analysis, all solutions were preheated to 37° C.
For the blood clotting assay, 64 μL of 0.2 M CaCl2 aqueous solution was mixed with 810 μL of blood containing EDTA and immediately 270 μL of this blood was covered with 10 mg of linear CD or CD particle. After 10 min, 10 mL of DI water was slowly added into the tubes and centrifuged at 100 g for 1 minute. Then 10 mL of supernatant solution containing non-clotting blood was taken from the tube and diluted with 40 mL of DI water. In the separation tube, 250 μL of the blood containing EDTA was dispersed in 50 mL of DI water as a control. The blood solution was incubated at 37.5° C. in a water bath for 1 h and then, the absorbance value of the supernatant was measured at 542 nm by using UV-Vis spectroscopy. The blood clotting index of the linear CD or CD particles was evaluated from the following equation.
Where Amaterial is the absorbance value of the blood solution interacted with the CD-based materials and Acontol is the absorbance value of the blood solution without the CD-based materials as a control. All assays were carried out in triplicate and the results are given with standard deviations.

Data set [1] is described as follows: Bisphenol A or curcumin loading into p(CD) particles (adsorption). The class given is physicochemical. As to conditions: for absorbed BPA: guest BPA; for absorbed CUR: guest CUR. On the procedure: Then, BPA-loaded CD-based particles were washed with ethanol-water (1:1) mixture one time by centrifugation at 10 000 rpm for 10 min. The BPA loaded CD-based particles were dried by freeze dryer for 48 h. Similarly, curcumin (CUR) was loaded into p(α-CD), p(β-CD), and p(γ-CD) particles by using the same procedure as described above. […] The CUR-loaded p(CD) materials were dried by freeze dryer for 48 h. The absorbance value of the BPA/CUR solutions before and after the loading processes were measured by using UV-Vis spectroscopy (SP-UV300SRB, Spectrum, China) at 275 nm and 425 nm for BPA and CUR, respectively against the previously constructed corresponding calibration curves for BPA and CUR prepared in ethanol-water mixtures. The ethanol-water solution was prepared at 1:7 and 3:2 volume ratios for BPA and CUR, respectively.

A further data set relates to L929 fibroblasts. Kind of data set: Cytotoxicity (MTT cell viability) on L929 fibroblasts. The class given is cell-based. The note with it: 1.0 mg/mL, 24 h incubation. On the procedure: For the biocompatibility analysis, L929 fibroblasts were cultured in an air-humidified incubator (5% CO2 atmosphere) in DMEM supplemented with 10% fetal bovine serum (FBS) at up to 70% cell confluency. The cytotoxicity analysis of CD-based materials was performed by MTT assay which determines the metabolic activity of living cells.
The L929 fibroblast cell suspension was adjusted to a density of 5×10^5 cells mL^−1 and gently homogenized. Then, 100 µL of this cell suspension was seeded onto wells on a 96-well plate. The well-plate was incubated at 37° C. under 5% CO2 in an air-humidified incubator for 24 h. After adherence of the fibroblasts, the culture medium was removed from the wells and 100 μL of CD-based particle suspension in culture medium DMEM at different concentrations between 50 and 1000 μg/mL was added to the cells. The plate was incubated at 37° C. under 5% CO2 in an air-humidified incubator for 24 h more. At the end of the incubation, the medium was removed from the wells, the cells were washed with phosphate-buffered saline solution (PBS) two times. After this step, 100 μL of MTT (Tetrazolium dye) at 0.5 mg/mL concentration was added to each well. The plate was incubated at room temperature in the dark for 4 h. Then, MTT solution was removed from the wells and 200 μL of DMSO was placed into the wells to dissolve the blue formazan crystals. Finally, the absorbance values were measured at 590 nm with a plate reader (Thermo Scientific™ Multiskan™). The absorbance value of control group was accepted as 100% viability and the decrease in cell viability % was estimated based on the absorbance values of the wells treated with CD-based materials by the following equation, Cell viability
Where Amaterial is the absorbance value of the cells interacting with CD-based materials and Acontrol is the absorbance value of the untreated cells as control. All assays were carried out in triplicate and the results are given with standard deviations.

For `OCC1OC2OC3C(CO)OC(OC4C(CO)OC(OC5C(CO)OC(OC6C(CO)OC(OC7C(CO)OC(OC1C(O)C2O)C(O)C7O)C(O)C6O)C(O)C5O)C(O)C4O)C(O)C3O` (stereo not drawn) [α-CD, α-cyclodextrin], the blood clotting index in the data set on Human blood is 93.6±2.2%. In data set [1], the “absorbed BPA” value was determined as 0.158 mmol/mmol and the “absorbed CUR” value came to 0.482 mmol/mmol. In the data set with L929 fibroblasts, this compound came in with a cell viability of 90±7%.
In the data set on Human blood, `OCC1OC2OC3C(CO)OC(OC4C(CO)OC(OC5C(CO)OC(OC6C(CO)OC(OC7C(CO)OC(OC8C(CO)OC(OC1C(O)C2O)C(O)C8O)C(O)C7O)C(O)C6O)C(O)C5O)C(O)C4O)C(O)C3O` (stereo not drawn) [β-CD, β-cyclodextrin] displayed a blood clotting index of 92.3±2.3%. Moreover, in data set [1], the “absorbed BPA” value worked out at 0.279 mmol/mmol and the “absorbed CUR” value turned out to be 0.398 mmol/mmol. Moreover, the cell viability in the data set with L929 fibroblasts is given as 89±14%.
`OCC1OC2OC3C(CO)OC(OC4C(CO)OC(OC5C(CO)OC(OC6C(CO)OC(OC7C(CO)OC(OC8C(CO)OC(OC9C(CO)OC(OC1C(O)C2O)C(O)C9O)C(O)C8O)C(O)C7O)C(O)C6O)C(O)C5O)C(O)C4O)C(O)C3O` (stereo not drawn) [γ-CD, γ-cyclodextrin] returned a blood clotting index with Human blood of 98.4±0.7%. In data set [1], the “absorbed BPA” value came out at 0.222 mmol/mmol and the “absorbed CUR” value turned out to be 0.416 mmol/mmol. In the data set with L929 fibroblasts, the cell viability turned out to be 95±14%.
